These results are taken from publication PMC9224512, “New Insights into the Determinants of Specificity in Human Type I Arginase: Generation of a Mutant That Is Only Active with Agmatine as Substrate” (International Journal of Molecular Sciences, 2022).

Changes are numbered by the printed parent chain. Values joined by “and” are separate entries in the source; they are usually repeats but may differ in a detail not shown here. Equal values may be shown once.

Test [1] addresses T1, human arginase type I N130D-S137C (Homo sapiens, UniProt P05089, N130D/S137C).
T1 sequence (P05089 1-322 N130D/S137C): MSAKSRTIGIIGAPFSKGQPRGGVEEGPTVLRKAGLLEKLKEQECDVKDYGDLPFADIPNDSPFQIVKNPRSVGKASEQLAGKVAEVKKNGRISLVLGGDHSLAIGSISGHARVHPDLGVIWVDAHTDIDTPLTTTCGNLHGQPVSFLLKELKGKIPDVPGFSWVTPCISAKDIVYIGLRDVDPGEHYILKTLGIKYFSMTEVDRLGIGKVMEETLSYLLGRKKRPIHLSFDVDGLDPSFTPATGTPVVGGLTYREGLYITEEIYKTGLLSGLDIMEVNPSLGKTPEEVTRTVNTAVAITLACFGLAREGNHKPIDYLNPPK
Kind of test: Kinetic and inhibition studies, N130D-S137C mutant. It counts as biochemical. As for the experimental part: (§1) Bacterial cultures were grown with shaking at 37 °C in Luria Broth media, in the presence of ampicillin (100 μg/mL). The wild-type and mutant human liver arginase cDNAs were directionally cloned into the pBluescript II KS(+) expression vector and then expressed in E. coli JM109, following induction with 1 mM isopropyl β-D-thiogalactopyranoside. The bacterial cells were disrupted by sonication on ice (5 × 30 s pulses), centrifuged for 20 min at 12,000× g, and the obtained supernatant was precipitated with ammonium sulfate (60% saturation). The pellet, collected by centrifugation at 12,000× g for 10 min, was re-suspended in buffer 5 mM Tris–HCl (pH 7.5) containing 2 mM MnCl2 and dialyzed for 6 h at 4 °C against the same buffer. After incubation with 5 mM MnCl2 for 10 min at 60 °C, the enzyme variants were purified as previously described. The purity of the enzymes was evaluated by SDS–PAGE stained by Coomassie blue and immunodetection using an anti- rat arginase I antibody.
(§2) The single, double, triple, and chimera variants of human arginase type I were obtained by PCR, using the QuickChange site-directed mutagenesis kit (Stratagene, La Jolla, CA, USA); the plasmid pBluescript II KS(+) containing the human liver arginase cDNA was used as template. To obtain the chimeric species of human arginase type I, serial mutations were made in each loop to be modified, using as template DNA the wild-type arginase gene or the previous done mutation, subcloned in the plasmid pBluescript II KS (+). Specifically, the residues present in the arginase structure were replaced by those corresponding to the agmatinase sequence of E. coli.
All assays were initiated by adding the enzyme to a previously equilibrated buffer with the substrate in solution (the concentrations of used substrates were between 0.2–3 fold the Km). Urea was determined by a colorimetric method with α-isonitrosopropiophenone. The protein concentrations were determined by the Bradford’s method, with bovine serum albumin as standard. […]

In test [2] the target is T2, human arginase type I N139D (Homo sapiens, UniProt P05089, N139D).
T2 sequence (P05089 1-322 N139D): T1 sequence (P05089 1-322 N130D/S137C) with D130N, C137S, N139D
Description: Kinetic and inhibition studies, N139D mutant. The test is classed as biochemical. The protocol: as §1, §2
(§3) All assays were initiated by adding the enzyme to a previously equilibrated buffer with the substrate in solution (the concentrations of used substrates were between 0.2–3 fold the Km). Urea was determined by a colorimetric method with α-isonitrosopropiophenone. The protein concentrations were determined by the Bradford’s method, with bovine serum albumin as standard. Initial velocity and enzymatic inhibition experiments were performed in duplicate and repeated three times. The inhibitory patterns were initially determined by double reciprocal plots and re-plots of intercepts and slopes versus inhibitor concentrations. […] Velocities are expressed as μmol of urea/10 min.

The test system of a further test is human arginase D183N. Details: method as in PMID 19093830. Conditions: substrate arginine; cited from earlier work.
In another test the test system is arginase N130A. Details: method as in PMID 19093830. Conditions: substrate arginine; cited from earlier work.
Test [3] concerns the target T3, WT-arginase (human arginase type I) (Homo sapiens, UniProt P05089).
T3 construct: made in house; host or cells: E. coli JM109
T3 sequence (P05089 1-322): T1 sequence (P05089 1-322 N130D/S137C) with D130N, C137S
Description: Kinetic and inhibition studies, wild-type human arginase type I. It counts as biochemical. As for the experimental part: as §1, §3

For another test, the system named is arginase N130Y. Details: method as in PMID 19093830. Conditions: substrate arginine; cited from earlier work.
Test [4] has as its target T4, human arginase type I N130D (Homo sapiens, UniProt P05089, N130D).
T4 sequence (P05089 1-322 N130D): T1 sequence (P05089 1-322 N130D/S137C) with C137S
Description: Kinetic and inhibition studies, N130D mutant. It counts as biochemical. The protocol: as §1, §2, §3

Test [5] concerns the target single, double and triple mutants (N130D, S137C, N139D) of human arginase type I. Description: Kinetic properties stated for all loop A mutants together. The test is classed as biochemical. The conditions noted are these: all mutants of Table 1; substrate arginine; read-out: Ki for competitive inhibition by the ornithine product. As for the experimental part: as §1
The single, double, triple, and chimera variants of human arginase type I were obtained by PCR, using the QuickChange site-directed mutagenesis kit (Stratagene, La Jolla, CA, USA); the plasmid pBluescript II KS(+) containing the human liver arginase cDNA was used as template. […]

[6] abbreviates: substrate = labelled compound, pH 9.5, 2 mM Mn2+.

One may read the kcat as the number of substrate molecules converted per active site and unit of time at saturation. In general, Km refers to the substrate concentration at which the rate is half of its maximum. With `N=C(N)NCCC[C@H](N)C(=O)O` [Arginine, L-arginine], the kcat in test [1] (substrate = labelled compound) is 23 s⁻¹; in test [2] (substrate = labelled compound) it was 64 s⁻¹; in test [3] (substrate = labelled compound, pH 9.5, 2 mM Mn2+, n/a = no activity with the substrate), 190 s⁻¹ and 190 ± 10 s⁻¹; in test [4] (setting [6]), 33 s⁻¹. Further, the Km came out at 6.5 mM in test [1] (setting [6]), 4.4 mM in test [2] (setting [6]), 1.5 mM in test [3] (setting [6]) and 13.3 mM in test [4] (setting [6]). The “increase in Km” value in the test on human arginase D183N is given as 27 fold. The reduction in kcat in the test on human arginase D183N is given as 12%. The “increase of Km for arginine” value in the test on arginase N130A is 50 fold. In the test on arginase N130A, the reduction of kcat is 37%. In the test with arginase N130Y, the decrease in kcat result is given as “approximately 20 times”. Further, in test [4] (substrate arginine), the “catalytic activity relative to wild type” value is 17%. Further, in test [4] (substrate arginine), the “kcat/Km ratio, times less than wild-type enzyme” value was 50 times.
The Ki is the equilibrium dissociation constant of an inhibitor or competing ligand from its target. As to `NCCC[C@H](N)C(=O)O` [Ornithine, L-ornithine], the Ki is 7.1 mM in test [1] (read-out: Ki^orn), 6.2 mM in test [2] (read-out: Ki^orn), around 7 mM in test [5] and 7.8 mM in test [4] (read-out: Ki^orn). The “Inhibition type” value in test [3] (substrate arginine) was “Competitive”. Moreover, the “Kis (Ki)” value in test [3] (substrate arginine, pH 9.5) came to 2 ± 0.5 mM.
